Read-outs that look alike come from different tables or passages of the source.
Assays:
Assay type in all cases: binding
[1] = biological target: T1, HeLa cell extract proteins (Homo sapiens, UniProt P51570)
T1 construct: endogenous in cells; host or cells: HeLa cell extract

[2] = biological target: T2, HeLa cell extract proteins (Homo sapiens, UniProt Q96S59)
T2 construct: endogenous in cells; host or cells: HeLa cell extract

[3] = biological target: T3, HeLa cell extract proteins (Homo sapiens, UniProt Q9BSE5)
T3 construct: endogenous in cells; host or cells: HeLa cell extract
T3 sequence (Q9BSE5 36-352): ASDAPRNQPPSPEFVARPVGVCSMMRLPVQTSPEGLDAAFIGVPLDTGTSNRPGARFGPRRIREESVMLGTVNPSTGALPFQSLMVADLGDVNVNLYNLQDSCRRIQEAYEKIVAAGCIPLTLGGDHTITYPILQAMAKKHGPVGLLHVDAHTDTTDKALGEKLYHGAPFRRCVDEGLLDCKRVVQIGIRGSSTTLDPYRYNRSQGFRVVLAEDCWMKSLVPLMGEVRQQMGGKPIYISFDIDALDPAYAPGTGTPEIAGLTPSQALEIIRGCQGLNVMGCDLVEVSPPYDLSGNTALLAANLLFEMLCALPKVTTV

[4] = biological target: T4, HeLa cell extract proteins (Homo sapiens, UniProt P31939)
T4 construct: endogenous in cells; host or cells: HeLa cell extract

[5] = biological target: T5, HeLa cell extract proteins (Homo sapiens, UniProt P13797)
T5 construct: endogenous in cells; host or cells: HeLa cell extract
T5 sequence (P13797 1-630): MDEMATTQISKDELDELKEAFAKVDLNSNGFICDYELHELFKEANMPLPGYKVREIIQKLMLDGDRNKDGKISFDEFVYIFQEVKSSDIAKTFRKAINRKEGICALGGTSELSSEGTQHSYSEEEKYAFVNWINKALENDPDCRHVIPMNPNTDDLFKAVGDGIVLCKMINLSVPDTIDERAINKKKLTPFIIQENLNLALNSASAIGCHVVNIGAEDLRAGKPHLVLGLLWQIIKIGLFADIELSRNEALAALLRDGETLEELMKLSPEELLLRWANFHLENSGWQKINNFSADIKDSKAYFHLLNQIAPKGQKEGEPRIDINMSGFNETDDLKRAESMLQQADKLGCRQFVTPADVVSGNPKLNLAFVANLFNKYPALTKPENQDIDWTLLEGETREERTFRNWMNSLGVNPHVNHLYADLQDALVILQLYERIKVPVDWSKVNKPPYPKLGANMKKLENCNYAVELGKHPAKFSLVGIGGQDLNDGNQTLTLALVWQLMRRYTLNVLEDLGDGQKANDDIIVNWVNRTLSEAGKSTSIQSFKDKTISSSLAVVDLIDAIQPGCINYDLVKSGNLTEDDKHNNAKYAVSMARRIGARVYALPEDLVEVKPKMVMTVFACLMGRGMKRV

[6] = biological target: T6, HeLa cell extract proteins (Homo sapiens, UniProt O75600); conditions: protein GCAT; HeLa
T6 construct: endogenous in cells; host or cells: HeLa cell extract
T6 sequence (O75600 22-419): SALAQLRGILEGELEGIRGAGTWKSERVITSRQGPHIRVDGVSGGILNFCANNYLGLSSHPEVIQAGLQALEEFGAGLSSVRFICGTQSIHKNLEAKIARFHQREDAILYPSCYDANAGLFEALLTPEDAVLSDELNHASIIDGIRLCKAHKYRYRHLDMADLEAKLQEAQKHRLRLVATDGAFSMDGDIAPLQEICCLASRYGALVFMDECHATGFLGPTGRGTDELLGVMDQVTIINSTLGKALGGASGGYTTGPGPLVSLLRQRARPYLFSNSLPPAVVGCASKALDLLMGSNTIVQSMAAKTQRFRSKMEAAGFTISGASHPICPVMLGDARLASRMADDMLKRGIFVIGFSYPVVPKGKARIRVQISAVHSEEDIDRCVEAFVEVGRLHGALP

[7] = biological target: T7, HeLa cell extract proteins (Homo sapiens, UniProt Q9NX61); conditions: captured protein TMEM161A; HeLa
T7 construct: endogenous in cells; host or cells: HeLa cell extract
T7 sequence (Q9NX61 29-479): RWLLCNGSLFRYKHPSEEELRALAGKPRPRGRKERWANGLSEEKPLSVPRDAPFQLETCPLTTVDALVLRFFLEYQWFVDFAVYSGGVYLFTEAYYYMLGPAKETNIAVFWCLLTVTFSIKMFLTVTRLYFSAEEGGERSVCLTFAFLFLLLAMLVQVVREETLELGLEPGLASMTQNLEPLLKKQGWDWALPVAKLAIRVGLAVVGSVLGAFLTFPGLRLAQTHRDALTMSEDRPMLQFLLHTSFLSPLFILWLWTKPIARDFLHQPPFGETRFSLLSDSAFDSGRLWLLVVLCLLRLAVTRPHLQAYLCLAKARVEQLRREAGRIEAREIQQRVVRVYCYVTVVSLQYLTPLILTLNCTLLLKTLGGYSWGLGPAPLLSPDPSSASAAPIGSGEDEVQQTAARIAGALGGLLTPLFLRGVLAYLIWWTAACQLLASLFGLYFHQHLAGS

[8] = biological target: T8, HeLa cell extract proteins (Homo sapiens, UniProt P22061); conditions: protein PCMT1; HeLa
T8 construct: endogenous in cells; host or cells: HeLa cell extract

[9] = biological target: T9, HeLa cell extract proteins (Homo sapiens, UniProt P26368); conditions: protein U2AF2; HeLa
T9 construct: endogenous in cells; host or cells: HeLa cell extract

[10] = biological target: T10, HeLa cell extract proteins (Homo sapiens, UniProt P46109); conditions: HeLa; protein CRKL
T10 construct: endogenous in cells; host or cells: HeLa cell extract

[11] = HeLa, protein GALK1 (CDNA FLJ56840, HIGHLY SIMILAR TO GALACTOKINASE)

T2 sequence (Q96S59 whole entry): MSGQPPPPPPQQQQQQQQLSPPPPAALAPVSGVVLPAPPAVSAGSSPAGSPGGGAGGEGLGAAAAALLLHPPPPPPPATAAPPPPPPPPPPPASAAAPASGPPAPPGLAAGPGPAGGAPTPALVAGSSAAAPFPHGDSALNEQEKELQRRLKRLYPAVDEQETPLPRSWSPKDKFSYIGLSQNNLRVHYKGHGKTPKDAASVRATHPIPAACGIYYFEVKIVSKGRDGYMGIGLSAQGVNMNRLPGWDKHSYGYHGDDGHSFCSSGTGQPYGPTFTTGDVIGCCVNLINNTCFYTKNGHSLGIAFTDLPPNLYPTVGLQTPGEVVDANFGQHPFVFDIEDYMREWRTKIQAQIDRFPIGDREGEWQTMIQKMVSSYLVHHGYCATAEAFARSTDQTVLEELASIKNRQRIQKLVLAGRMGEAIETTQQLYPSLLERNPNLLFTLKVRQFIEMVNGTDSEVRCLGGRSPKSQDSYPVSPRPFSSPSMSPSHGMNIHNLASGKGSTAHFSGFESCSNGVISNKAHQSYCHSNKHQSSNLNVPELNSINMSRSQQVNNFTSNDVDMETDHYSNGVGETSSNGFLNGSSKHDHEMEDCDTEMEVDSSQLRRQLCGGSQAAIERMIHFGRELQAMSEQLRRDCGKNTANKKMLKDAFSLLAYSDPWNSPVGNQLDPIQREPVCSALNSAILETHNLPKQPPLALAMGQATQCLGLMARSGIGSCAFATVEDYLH
T9 sequence (P26368 whole entry): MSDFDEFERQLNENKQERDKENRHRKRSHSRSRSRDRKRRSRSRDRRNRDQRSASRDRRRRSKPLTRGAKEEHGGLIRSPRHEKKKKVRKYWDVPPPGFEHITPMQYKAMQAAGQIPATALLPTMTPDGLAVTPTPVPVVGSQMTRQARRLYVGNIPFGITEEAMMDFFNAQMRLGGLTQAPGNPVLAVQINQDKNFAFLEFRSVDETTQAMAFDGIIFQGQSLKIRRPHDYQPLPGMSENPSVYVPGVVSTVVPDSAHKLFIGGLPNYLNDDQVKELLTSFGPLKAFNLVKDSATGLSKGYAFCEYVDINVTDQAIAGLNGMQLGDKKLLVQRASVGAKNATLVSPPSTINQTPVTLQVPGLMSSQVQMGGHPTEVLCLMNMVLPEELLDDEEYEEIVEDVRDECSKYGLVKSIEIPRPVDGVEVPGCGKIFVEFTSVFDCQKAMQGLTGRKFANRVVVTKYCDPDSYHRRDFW
T4 sequence (P31939 whole entry): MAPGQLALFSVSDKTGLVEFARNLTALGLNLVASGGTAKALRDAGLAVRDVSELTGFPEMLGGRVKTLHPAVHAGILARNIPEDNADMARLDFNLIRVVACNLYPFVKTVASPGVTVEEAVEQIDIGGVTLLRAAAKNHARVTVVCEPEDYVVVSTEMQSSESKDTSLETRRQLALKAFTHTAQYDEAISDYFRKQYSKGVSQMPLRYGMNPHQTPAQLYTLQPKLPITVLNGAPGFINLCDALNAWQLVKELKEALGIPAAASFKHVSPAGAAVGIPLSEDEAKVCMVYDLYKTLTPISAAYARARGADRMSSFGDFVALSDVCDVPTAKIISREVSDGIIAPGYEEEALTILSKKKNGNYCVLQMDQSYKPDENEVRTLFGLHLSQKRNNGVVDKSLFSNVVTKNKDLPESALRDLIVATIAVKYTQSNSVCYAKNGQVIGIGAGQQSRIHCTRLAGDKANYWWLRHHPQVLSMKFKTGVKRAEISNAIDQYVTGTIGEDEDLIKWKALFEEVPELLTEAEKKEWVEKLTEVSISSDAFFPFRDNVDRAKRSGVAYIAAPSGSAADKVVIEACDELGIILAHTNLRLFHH
T8 sequence (P22061 whole entry): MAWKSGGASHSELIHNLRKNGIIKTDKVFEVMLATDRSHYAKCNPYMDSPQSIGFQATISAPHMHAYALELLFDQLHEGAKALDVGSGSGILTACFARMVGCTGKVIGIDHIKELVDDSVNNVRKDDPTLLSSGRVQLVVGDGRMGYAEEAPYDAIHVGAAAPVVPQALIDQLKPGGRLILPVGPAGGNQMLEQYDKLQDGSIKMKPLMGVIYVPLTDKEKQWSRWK
T10 sequence (P46109 whole entry): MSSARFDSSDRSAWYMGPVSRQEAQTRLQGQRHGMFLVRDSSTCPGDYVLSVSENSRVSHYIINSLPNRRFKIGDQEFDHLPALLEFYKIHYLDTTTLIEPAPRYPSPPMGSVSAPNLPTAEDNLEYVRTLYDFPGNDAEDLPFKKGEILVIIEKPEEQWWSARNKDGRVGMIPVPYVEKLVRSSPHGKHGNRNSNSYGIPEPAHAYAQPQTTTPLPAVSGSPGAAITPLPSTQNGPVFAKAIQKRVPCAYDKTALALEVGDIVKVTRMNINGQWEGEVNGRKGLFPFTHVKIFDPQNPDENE
T1 sequence (P51570 whole entry): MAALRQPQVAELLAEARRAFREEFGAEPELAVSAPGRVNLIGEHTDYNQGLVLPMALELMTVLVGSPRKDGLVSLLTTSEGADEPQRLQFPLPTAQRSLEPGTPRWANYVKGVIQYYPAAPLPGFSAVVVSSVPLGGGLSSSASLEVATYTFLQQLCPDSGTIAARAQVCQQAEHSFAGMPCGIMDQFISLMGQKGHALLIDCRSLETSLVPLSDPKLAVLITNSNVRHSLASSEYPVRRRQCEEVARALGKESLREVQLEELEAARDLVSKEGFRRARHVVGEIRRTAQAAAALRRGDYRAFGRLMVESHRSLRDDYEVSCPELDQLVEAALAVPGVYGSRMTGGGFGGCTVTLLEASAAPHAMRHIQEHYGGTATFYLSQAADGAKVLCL

Nc1nc2c(c(=O)[nH]1)N(C=O)C(CNc1ccc(C(=O)N[C@@H](CCC(=O)O)C(=O)O)cc1)CN2 (some centres unmarked) [LEU, leucovorin]
fold changes relative to vehicle control [1, 11]: 1.18
fold changes relative to vehicle control ([2]; protein RANBP9, HeLa): 1.03
fold changes relative to vehicle control ([3]; protein AGMAT, HeLa): 0.84
fold changes relative to vehicle control ([4]; HeLa, protein ATIC): 1.06
fold changes relative to vehicle control ([5]; HeLa, protein PLS3): 0.93

NCCCNc1ccc(C(=O)NC(CCC(=O)O)C(=O)O)cc1 (centres unmarked) [compound 7]
fold changes relative to vehicle control [1, 11]: 1.2
fold changes relative to vehicle control ([2]; protein RANBP9, HeLa): 1.65
fold changes relative to vehicle control ([3]; protein AGMAT, HeLa): 0.93
fold changes relative to vehicle control ([4]; HeLa, protein ATIC): 0.99
fold changes relative to vehicle control ([5]; HeLa, protein PLS3): 1

CCCCCCOc1cccc(Cc2cnc(N)nc2N)c1 [compound 2]
fold changes relative to vehicle control [6]: 1.14
fold changes relative to vehicle control [7]: 1.02
fold changes relative to vehicle control [8]: 1.28
fold changes relative to vehicle control [9]: 1.36
fold changes relative to vehicle control [10]: 0.96

CCCCCCOc1ccc(Cc2cnc(N)nc2N)cc1 [compound 1]
fold changes relative to vehicle control [6]: 0.95
fold changes relative to vehicle control [7]: 0.76
fold changes relative to vehicle control [8]: 0.92
fold changes relative to vehicle control [9]: 1.12
fold changes relative to vehicle control [10]: 0.82

Nc1nc2cccc(-c3ccccc3)c2n1Cc1ccc(Cl)c(Cl)c1 [compound 3]
fold changes relative to vehicle control [6]: 1.03
fold changes relative to vehicle control [7]: 0.94
fold changes relative to vehicle control [8]: 0.88
fold changes relative to vehicle control [9]: 0.93
fold changes relative to vehicle control [10]: 1.15

NCCOCCOCC(=O)Nc1nc2ncc(CNc3ccc(C(=O)NC(CCC(=O)O)C(=O)O)cc3)nc2c(=O)[nH]1 (centres unmarked) [compound 6]
fold changes relative to vehicle control [1, 11]: 1.12
fold changes relative to vehicle control ([2]; protein RANBP9, HeLa): 0.96
fold changes relative to vehicle control ([3]; protein AGMAT, HeLa): 0.97
fold changes relative to vehicle control ([4]; HeLa, protein ATIC): 1.13
fold changes relative to vehicle control ([5]; HeLa, protein PLS3): 1.31

Nc1nc2[nH]cc(CCc3ccc(C(=O)N[C@@H](CCC(=O)O)C(=O)O)cc3)c2c(=O)[nH]1 [PTX, pemetrexed]
fold changes relative to vehicle control [1]: 1.27
fold changes relative to vehicle control [2]: 1.05
fold changes relative to vehicle control [3]: 0.89
fold changes relative to vehicle control [4]: 0.91
fold changes relative to vehicle control [5]: 1.18
